Test [1] concerns non-anesthetized marmosets. Kind of test: Hypotensive action on non-anesthetized marmosets under salt intake control. The following applies: 10 mg/kg, po, low salt diet, tail-cuff method, relative to value before administration. Type of test: in vivo. An excerpt:
(§1) In the following, the test results of the inhibitory action of the dioxacycloalkane compound of the above-mentioned formula [1] of the present invention, on the renin activity in human plasma and the hypotensive action on nonanesthetized marmosets under salt intake control are shown.
Hypotensive action on non-anesthetized marmosets under salt intake control
Non-anesthetized marmosets (weighing 310-370 g) raised on a low salt diet (containing 0.02% salt, 1/10 of the normal diet) for a week were orally administered with the compound (10 mg/kg) of Example 1 dissolved in 0.1 M citric acid, at the ratio of 2 ml/kg. The blood pressure was measured with the lapse of time before and after the administration by the tail-cuff method, and the hypotensive action was calculated in percentage relative to the value measured before the administration.

The target of test [2] is T1, renin activity in human plasma (Homo sapiens, UniProt P00797).
T1 construct: Human plasma (200 μl); from tissue; host or cells: human plasma
T1 sequence (P00797 67-406): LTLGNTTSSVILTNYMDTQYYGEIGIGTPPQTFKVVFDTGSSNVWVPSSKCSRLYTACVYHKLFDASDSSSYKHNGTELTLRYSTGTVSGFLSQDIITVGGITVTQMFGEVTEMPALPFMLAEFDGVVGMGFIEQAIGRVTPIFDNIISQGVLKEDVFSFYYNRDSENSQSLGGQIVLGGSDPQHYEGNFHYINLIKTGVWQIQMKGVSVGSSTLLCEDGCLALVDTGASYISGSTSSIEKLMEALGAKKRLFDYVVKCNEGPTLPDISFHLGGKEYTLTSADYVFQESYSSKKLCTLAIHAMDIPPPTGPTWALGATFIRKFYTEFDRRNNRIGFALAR
The experiment in a line: Inhibitory action on renin activity in human plasma. Particulars: 37° C., 1 hour, angiotensin I by radio immunoassay. Type of test: biochemical. As to the method: as §1
Inhibitory action on renin activity in human plasma
Human plasma (200 μl), a pH adjusting solution (20 μl), PMSF (10 μl), and a solution (10 μl) of the dioxacycloalkane compound of the present invention in dimethyl sulfoxide or dimethyl sulfoxide (10 μl ) as a control were placed in plastic tubes for RIA. Two sets of these were prepared and one set of them was incubated at 37° C. for 1 hour and the other was incubated at 4° C. for 1 hour.
After incubation, the amount of angiotensin I was quantitatively assayed by the radio immunoassay method. The renin activity in plasma was calculated by subtracting the amount of angiotensin I in the reaction mixture incubated at 4° C. from that in the reaction mixture incubated at 37° C. Percent inhibitory activity was calculated from the following formula [formula] The molar concentration necessary for 50% inhibition of activity (IC5 0) was determined from the inhibitory activity value obtained by the above calculating formula. [RENIN RIABEADS KIT (Dinabot Ltd.) was used for the measurement.]

By IC50 is commonly meant the concentration that gives 50% inhibition. Low readings indicate inhibition by little substance, high ones a need for much substance.

`CN(C(=O)[C@H](Cc1ccccc1)NC(=O)N1CCCCC1)[C@@H](Cc1c[nH]cn1)C(=O)N[C@@H](CC1CCCCC1)[C@@H](O)C[C@@H]1OCOC1(C)C` [Example 1, (4S)-4-[(2S,3S)-4-cyclohexyl-2-hydroxy-3-[[Nα-methyl-N α-(N-piperidinocarbonyl-L-phenylalanyl)-L-histidyl]amino]butyl]-5,5-dimethyl-1,3-dioxolane]: in test [1] (0.5 hr later), the “Hypotensive action (%) 0.5 hr later” value came to 10%. Further, the “Hypotensive action (%) 1 hr later” value in test [1] (1 hr later) was found to be 12%. In addition, the “Hypotensive action (%) 3 hrs later” value in test [1] (3 hrs later) stood at 10%. Further, the “Hypotensive action (%) 5 hrs later” value in test [1] (5 hrs later) is 10%. In test [1] (7 hrs later), the “Hypotensive action (%) 7 hrs later” value amounted to 3%. In addition, the midpoint of inhibition in test [2], the IC50, lay at 0.9 nM.
Turning to `CN(C(=O)[C@H](Cc1ccccc1)NC(=O)N1CCCCC1)[C@@H](Cc1c[nH]cn1)C(=O)N[C@@H](CC1CCCCC1)[C@@H](O)C[C@H]1OCOC1(C)C` [Example 2, (4R)-4-[(2S,3S)-4-cyclohexyl-2-hydroxy-3-[[Nα-methyl-N α-(N-piperidinocarbonyl-L-phenylalanyl)-L-histidyl]amino]butyl]-5,5-dimethyl-1,3-dioxolane], in test [2], inhibition was half-maximal at 21 nM (IC50).
In test [2], `CC1(C)OCO[C@H]1C[C@H](O)[C@H](CC1CCCCC1)NC(=O)[C@H](Cc1c[nH]cn1)NC(=O)[C@H](Cc1ccccc1)OC(=O)N1CCCCC1` [Example 3, (4S)-4-[(2S,3S)-4-cyclohexyl-2-hydroxy-3-[[Nα-[(2S)-3-phenyl-2-piperidinocarbonyloxypropionyl]-L-histidyl]amino]butyl]-5,5-dimethyl-1,3-dioxolane] returned an IC50 of 7 nM.
In test [2], `CC1(C)OCO[C@H]1C[C@H](O)[C@H](CC1CCCCC1)NC(=O)[C@H](Cc1c[nH]cn1)NC(=O)[C@H](Cc1ccccc1)NC(=O)N1CCCCC1` [Example 4, (4S)-4-[(2S,3S)-4-cyclohexyl-2-hydroxy-3-[[N α-(N-piperidino-carbonyl-L-phenylalanyl)-L-histidyl]amino]butyl]-5,5-dimethyl-1,3-dioxolane] registered an IC50 of 1.8 nM.
`CSC[C@H](NC(=O)[C@H](Cc1ccccc1)OC(=O)N1CCN(C)CC1)C(=O)N[C@@H](CC1CCCCC1)[C@@H](O)C[C@@H]1OCOC1(C)C` [Example 5, (4S)-4-[(2S,3S)-4-cyclohexyl-2-hydroxy-3-[[S-methyl-N-[(2S)-3-phenyl-2-(4-methylpiperazinyl)carbonyloxypropionyl]-L-cysteinyl]amino]butyl]-5,5-dimethyl-1,3-dioxolane] had an IC50 in test [2] of 14 nM.
In test [2], `CN(C(=O)[C@H](Cc1ccccc1)NS(=O)(=O)N1CCCCC1)[C@@H](Cc1c[nH]cn1)C(=O)N[C@@H](CC1CCCCC1)[C@@H](O)C[C@@H]1OCOC1(C)C` [Example 6, (4S)-4-[(2S,3S)-4-cyclohexyl-2-hydroxy-3-[[Nα-methyl-N α-(N-piperidinosulfonyl-L-phenylalanyl)-L-histidyl]amino]butyl]-5,5-dimethyl-1,3-dioxolane] yielded an IC50 of 11 nM.
For the molecule `CC1CCN(C(=O)N[C@@H](Cc2ccccc2)C(=O)N(C)[C@@H](Cc2c[nH]cn2)C(=O)N[C@@H](CC2CCCCC2)[C@@H](O)C[C@@H]2OCOC2(C)C)CC1` [Example 9, (4S)-4-[(2S,3S)-4-cyclohexyl-2-hydroxy-3-[[Nα-methyl-N α-[N-(4-methylpiperidino)carbonyl-L-phenylalanyl]-L-histidyl]-amino]butyl]-5,5-dimethyl-1,3-dioxolane], inhibition in test [2] was half-maximal at 3 nM (IC50).
`CCN(CC)C(=O)N[C@@H](Cc1ccccc1)C(=O)N(C)[C@@H](Cc1c[nH]cn1)C(=O)N[C@@H](CC1CCCCC1)[C@@H](O)C[C@@H]1OCOC1(C)C` [Example 10, (4S)-4-[(2S,3S)-4-cyclohexyl-2-hydroxy-3-[[Nα-methyl-N α-[N-(diethylamino)carbonyl-L-phenylalanyl]-L-histidyl]amino]butyl]-5,5-dimethyl-1,3-dioxolane]: the IC50 in test [2] worked out at 7.8 nM.
Molecule `CN(C(=O)[C@H](Cc1ccccc1)NC(=O)N1CCCCC1)[C@@H](Cc1c[nH]cn1)C(=O)N[C@@H](CC1CCCCC1)[C@@H](O)C[C@@H]1OC(C)(C)OC1(C)C` [Example 11, (4S)-4-[(2S,3S)-4-cyclohexyl-2-hydroxy-3-[[Nα-methyl-N α-(N-piperidinocarbonyl-L-phenylalanyl)-L-histidyl]amino]butyl]-2,2,5,5-tetramethyl-1,3-dioxolane] returned an IC50 in test [2] of 13 nM.
`CN(C(=O)[C@H](Cc1ccccc1)NC(=O)N1CCCCC1)[C@@H](Cc1c[nH]cn1)C(=O)N[C@@H](CC1CCCCC1)[C@@H](O)C[C@@H]1OC(c2ccccc2)OC1(C)C` (stereo partly drawn) [Example 12, (4S)-4-[(2S,3S)-4-cyclohexyl-2-hydroxy-3-[[Nα-methyl-N α-(N-piperidinocarbonyl-L-phenylalanyl)-L-histidyl]amino]butyl]-5,5-dimethyl-2-phenyl-1,3-dioxolane] registered an IC50 in test [2] of 4 nM.
